Measured values as given in patent publication US20210323950A1, “HERBICIDALLY ACTIVE BICYCLIC BENZOYLPYRAZOLES” (Bayer Aktiengesellschaft, priority 2018, published 2021).

Tests used:
Type in all cases: in vivo
[1] = system: Amaranthus retroflexus (AMARE); assay: Pre-emergence herbicidal action against AMARE; details: scored visually after about 3 weeks vs untreated controls
Method in brief: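 Formulated compounds (WP or EC) sprayed onto soil covering sown seeds, with 0.5% additive at […] water (converted). Greenhouse-grown about 3 weeks, then damage scored visually as percent versus untreated controls (100% = dead, 0% = like control).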

[2] = system: Echinochloa crus-galli (ECHCG); assay: Pre-emergence herbicidal action against ECHCG; details: scored visually after about 3 weeks vs untreated controls
Stellaria media (STEME) = assay: Post-emergence herbicidal action against STEME; details: 20 g/ha, post-emergence at one-leaf stage, rated visually after about 3 weeks vs untreated controls
Viola tricolor (VIOTR) = assay: Post-emergence herbicidal action against VIOTR; details: 20 g/ha, post-emergence at one-leaf stage, rated visually after about 3 weeks vs untreated controls
Description: (§1) VIOTR: Viola tricolor 2. Post-Emergence Herbicidal Action and Crop Plant Compatibility Seeds of monocotyledonous and dicotyledonous weeds and crop plants are placed in sandy loam in plastic or organic planting pots, covered with soil and cultivated in a greenhouse under controlled growth conditions. 2 to 3 weeks after sowing, the test plants are treated at the one-leaf stage. The compounds of the invention, formulated in the form of wettable powders (WP) or as emulsion concentrates (EC), are then sprayed onto the green parts of the plants as aqueous suspension or emulsion with addition of 0.5% additive at a water application rate of […] (converted). After the test plants had been kept in the greenhouse under optimum growth conditions for about 3 weeks, the activity of the preparations is rated visually in comparison to untreated controls. The tables below show the herbicidal activity of numerous compounds according to the invention against important harmful plants. For example, 100% activity=the plants have died, 0% activity=like control plants.

Veronica persica (VERPE) [3] = assay: Pre-emergence herbicidal action against VERPE; details: scored visually after about 3 weeks vs untreated controls
Method in brief: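 Weed seeds were sown in pots and covered with soil. Pots were kept in the greenhouse and damage was scored visually after about 3 weeks as percent versus untreated controls (100% = plants died).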

[4] = system: Abutilon theophrasti (ABUTH); assay: Post-emergence herbicidal action against ABUTH; details: 20 g/ha, post-emergence at one-leaf stage, rated visually after about 3 weeks vs untreated controls
Description: as §1, with “ABUTH: Abutilon theophrasti” for “VIOTR: Viola tricolor”

Veronica persica (VERPE) [5] = assay: Post-emergence herbicidal action against VERPE; details: 20 g/ha, post-emergence at one-leaf stage, rated visually after about 3 weeks vs untreated controls
Description: as §1, with “VERPE: Veronica persica” for “VIOTR: Viola tricolor”

Row | SMILES | Pre-emergence action against AMARE ([1]; 80 g/ha) [%] | Pre-emergence action against ECHCG ([2]; 80 g/ha) [%] | Post-emergence action against STEME (Stellaria media (STEME)) [%] | Post-emergence action against VIOTR (Viola tricolor (VIOTR)) [%] | Pre-emergence action against VERPE (Veronica persica (VERPE) [3]; 80 g/ha) [%] | Post-emergence action against ABUTH [4] [%] | Pre-emergence action against ECHCG ([2]; 320 g/ha) [%] | Pre-emergence action against VERPE (Veronica persica (VERPE) [3]; 320 g/ha) [%] | Post-emergence action against VERPE (Veronica persica (VERPE) [5]) [%] | Pre-emergence action against AMARE ([1]; 320 g/ha) [%]
1 | Cn1ncc(C(=O)c2ccc(C(F)(F)C(F)(F)F)c3c2OCS3)c1O [Example 1-128] | 100 | 90 | 80 |  |  |  |  |  |  | 
2 | Cn1ncc(C(=O)c2ccc(C(F)(F)F)c3c2OCCS3)c1O [Example 1-15] | 100 | 80 | 90 | 80 | 90 |  |  |  |  | 
3 | Cn1ncc(C(=O)c2ccc(C(F)(F)F)c3c2OC[S+]3[O-])c1O (stereo not shown) [Example 1-28] |  |  | 90 | 90 |  | 90 | 100 | 100 | 90 | 
4 | CCn1ncc(C(=O)c2ccc(C(F)(F)F)c3c2OCC[S+]3[O-])c1O (stereo not shown) [Example 1-35] | 100 | 100 | 90 | 100 |  | 90 |  |  |  | 
5 | Cc1nn(C)c(O)c1C(=O)c1ccc(C(F)(F)F)c2c1OCC[S+]2[O-] (stereo not shown) [Example 1-40] | 100 | 80 | 100 | 80 |  | 80 |  |  |  | 
6 | Cc1nn(C)c(O)c1C(=O)c1ccc(C(F)(F)F)c2c1OCCS2(=O)=O [Example 1-55] | 100 | 100 | 90 | 80 | 90 | 90 |  |  |  | 
7 | Cn1ncc(C(=O)c2ccc(C(F)(F)F)c3c2OCS3)c1O [Example 1-13] |  |  | 100 |  |  | 90 | 100 | 100 |  | 100
8 | CCn1ncc(C(=O)c2ccc(C(F)(F)F)c3c2OCCS3(=O)=O)c1O [Example 1-50] | 100 | 100 | 80 |  | 90 | 90 |  |  |  | 
9 | Cn1ncc(C(=O)c2ccc(C(F)(F)F)c3c2OCCS3(=O)=O)c1O [Example 1-45] | 100 | 100 | 100 | 90 | 100 |  |  |  | 90 | 
10 | Cn1ncc(C(=O)c2ccc(C(F)(F)F)c3c2OCC[S+]3[O-])c1O (stereo not shown) [Example 1-30] | 100 | 100 |  | 90 |  | 80 |  |  |  | 
11 | Cn1nc(C2CC2)c(C(=O)c2ccc(C(F)(F)F)c3c2OCC[S+]3[O-])c1O (stereo not shown) [Example 1-116] | 100 | 80 | 100 |  | 80 | 90 |  |  |  | 
